Our source for the IC50 values is PMC3949575 (The Journal of Experimental Medicine, 2014).

SMILES strings stand for the structures.

This experiment deals with deoxycytidine kinase (dCK) (Homo sapiens, UniProt P27707). The experiment in a line: HTS hit. The experiment is classed as cell-based.

The IC50 is the concentration that gives 50% inhibition. Turning to `COc1ccc(Br)cc1-c1nc(CSc2nc(N)cc(N)n2)cs1` [DI-0120], the midpoint of inhibition, the IC50, lay at 1.4 µM.
